According to ChEMBL document CHEMBL1149703 (Bioorg Med Chem Lett, 2007):

Legend:
[1] = target: Proto-oncogene tyrosine-protein kinase Src (Homo sapiens) (UniProt P12931); test: Inhibition of Src assessed as residual activity at 0.01 uM
[2] = target: Maternal embryonic leucine zipper kinase (Homo sapiens) (UniProt Q14680); test: Inhibition of MELK assessed as residual activity at 1 uM
[3] = target: Serine/threonine-protein kinase Sgk1 (Homo sapiens) (UniProt O00141); test: Inhibition of SGK1 assessed as residual activity at 0.01 uM
[4] = target: Mitogen-activated protein kinase 10 (Homo sapiens) (UniProt P53779); test: Inhibition of JNK3 assessed as residual activity at 1 uM
Chain of Mitogen-activated protein kinase 10 (Homo sapiens) (P53779 whole entry): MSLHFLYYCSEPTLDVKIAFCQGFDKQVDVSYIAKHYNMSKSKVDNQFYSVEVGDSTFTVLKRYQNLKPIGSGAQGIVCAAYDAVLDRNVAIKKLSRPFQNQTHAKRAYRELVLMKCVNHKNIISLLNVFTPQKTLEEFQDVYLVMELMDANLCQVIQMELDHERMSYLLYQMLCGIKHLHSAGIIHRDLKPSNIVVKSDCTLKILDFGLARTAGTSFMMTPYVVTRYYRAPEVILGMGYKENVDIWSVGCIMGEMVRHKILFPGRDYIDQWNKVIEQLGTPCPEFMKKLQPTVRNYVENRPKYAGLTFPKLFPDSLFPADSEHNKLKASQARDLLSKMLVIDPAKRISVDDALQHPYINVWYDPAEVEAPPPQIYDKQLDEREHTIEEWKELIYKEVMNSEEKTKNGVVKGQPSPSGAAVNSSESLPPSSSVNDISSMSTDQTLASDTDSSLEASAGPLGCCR

[5] = target: Serine/threonine-protein kinase Nek6 (Homo sapiens) (UniProt Q9HC98); test: Inhibition of NEK6 assessed as residual activity at 1 uM; format: functional
[6] = target: Glycogen synthase kinase-3 beta (Homo sapiens) (UniProt P49841); test: Inhibition of GSK3-beta assessed as residual activity at 0.01 uM
[7] = target: Protein kinase C alpha type (Homo sapiens) (UniProt P17252); test: Inhibition of PKCalpha assessed as residual activity at 0.01 uM
[8] = target: T1, AMP-activated protein kinase, AMPK (Homo sapiens) (UniProt P54646+O43741+P54619+Q9UGJ0+Q9Y478+Q13131+Q9UGI9); test: Inhibition of AMPK assessed as residual activity at 1 uM; format: protein-complex assay
[9] = target: Ribosomal protein S6 kinase alpha-3 (Homo sapiens) (UniProt P51812); test: Inhibition of RSK2 assessed as residual activity at 0.01 uM
[10] = species on record: Homo sapiens; test: Inhibition of CDK2/cyclin A assessed as residual activity at 1 uM
[11] = target: Ribosomal protein S6 kinase alpha-1 (Homo sapiens) (UniProt Q15418); test: Inhibition of RSK1 assessed as residual activity at 1 uM
Chain of Ribosomal protein S6 kinase alpha-1 (Homo sapiens) (Q15418 whole entry): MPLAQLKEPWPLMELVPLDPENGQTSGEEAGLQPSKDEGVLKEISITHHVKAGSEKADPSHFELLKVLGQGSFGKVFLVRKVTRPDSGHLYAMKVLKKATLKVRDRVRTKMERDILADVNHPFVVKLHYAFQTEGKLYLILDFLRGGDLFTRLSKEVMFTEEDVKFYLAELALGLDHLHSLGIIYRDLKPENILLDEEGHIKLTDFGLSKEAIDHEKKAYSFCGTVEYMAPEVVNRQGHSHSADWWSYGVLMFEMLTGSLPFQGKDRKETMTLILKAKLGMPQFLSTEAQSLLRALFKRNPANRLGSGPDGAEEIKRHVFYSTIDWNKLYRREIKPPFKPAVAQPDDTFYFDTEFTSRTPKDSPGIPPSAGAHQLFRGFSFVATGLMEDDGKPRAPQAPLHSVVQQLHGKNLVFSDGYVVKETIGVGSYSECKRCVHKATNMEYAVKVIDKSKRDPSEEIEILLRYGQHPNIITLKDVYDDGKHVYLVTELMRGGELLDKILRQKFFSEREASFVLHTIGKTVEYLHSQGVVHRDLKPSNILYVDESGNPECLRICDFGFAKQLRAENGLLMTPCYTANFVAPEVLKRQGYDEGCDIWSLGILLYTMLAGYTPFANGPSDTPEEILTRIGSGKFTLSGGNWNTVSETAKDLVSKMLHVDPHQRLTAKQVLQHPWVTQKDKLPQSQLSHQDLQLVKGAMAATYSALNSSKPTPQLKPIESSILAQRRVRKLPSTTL

[12] = target: Dual specificity tyrosine-phosphorylation-regulated kinase 3 (Homo sapiens) (UniProt O43781); test: Inhibition of DYRK3 assessed as residual activity at 0.01 uM
Chain of Dual specificity tyrosine-phosphorylation-regulated kinase 3 (Homo sapiens) (O43781 whole entry): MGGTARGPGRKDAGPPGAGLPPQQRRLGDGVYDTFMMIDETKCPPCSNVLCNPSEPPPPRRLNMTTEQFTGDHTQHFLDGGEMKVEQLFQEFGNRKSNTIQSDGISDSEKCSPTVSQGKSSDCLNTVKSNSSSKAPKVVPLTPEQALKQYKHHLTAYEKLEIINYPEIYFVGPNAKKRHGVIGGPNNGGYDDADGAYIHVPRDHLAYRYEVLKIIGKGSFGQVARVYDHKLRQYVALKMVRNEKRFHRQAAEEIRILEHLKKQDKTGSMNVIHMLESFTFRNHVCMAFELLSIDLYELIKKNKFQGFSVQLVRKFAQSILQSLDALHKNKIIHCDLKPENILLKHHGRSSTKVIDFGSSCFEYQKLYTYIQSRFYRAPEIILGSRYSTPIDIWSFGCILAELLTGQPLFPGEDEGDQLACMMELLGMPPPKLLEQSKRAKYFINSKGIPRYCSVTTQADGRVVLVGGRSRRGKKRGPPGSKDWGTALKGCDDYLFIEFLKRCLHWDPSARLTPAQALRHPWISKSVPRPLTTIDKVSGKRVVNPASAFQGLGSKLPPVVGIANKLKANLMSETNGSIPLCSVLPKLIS

[13] = target: MAP kinase-activated protein kinase 3 (Homo sapiens) (UniProt Q16644); test: Inhibition of MAPKAP K3 assessed as residual activity at 1 uM
Chain of MAP kinase-activated protein kinase 3 (Homo sapiens) (Q16644 whole entry, looked up): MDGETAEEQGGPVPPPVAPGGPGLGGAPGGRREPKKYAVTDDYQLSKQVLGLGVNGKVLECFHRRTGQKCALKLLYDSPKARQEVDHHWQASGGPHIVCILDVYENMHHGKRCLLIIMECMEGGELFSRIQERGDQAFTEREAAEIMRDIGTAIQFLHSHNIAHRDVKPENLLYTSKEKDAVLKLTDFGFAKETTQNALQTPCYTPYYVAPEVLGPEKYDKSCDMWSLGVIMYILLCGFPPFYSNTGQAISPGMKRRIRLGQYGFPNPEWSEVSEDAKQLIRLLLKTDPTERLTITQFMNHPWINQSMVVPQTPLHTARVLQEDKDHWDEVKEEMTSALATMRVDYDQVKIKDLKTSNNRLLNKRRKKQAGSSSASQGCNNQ

[14] = target: 3-phosphoinositide-dependent protein kinase 1 (Homo sapiens) (UniProt O15530); test: Inhibition of PDK1 assessed as residual activity at 1 uM
[15] = target: Serine/threonine-protein kinase PAK 5 (Homo sapiens) (UniProt Q9P286); test: Inhibition of PAK5 assessed as residual activity at 0.01 uM
Chain of Serine/threonine-protein kinase PAK 5 (Homo sapiens) (Q9P286 whole entry, looked up): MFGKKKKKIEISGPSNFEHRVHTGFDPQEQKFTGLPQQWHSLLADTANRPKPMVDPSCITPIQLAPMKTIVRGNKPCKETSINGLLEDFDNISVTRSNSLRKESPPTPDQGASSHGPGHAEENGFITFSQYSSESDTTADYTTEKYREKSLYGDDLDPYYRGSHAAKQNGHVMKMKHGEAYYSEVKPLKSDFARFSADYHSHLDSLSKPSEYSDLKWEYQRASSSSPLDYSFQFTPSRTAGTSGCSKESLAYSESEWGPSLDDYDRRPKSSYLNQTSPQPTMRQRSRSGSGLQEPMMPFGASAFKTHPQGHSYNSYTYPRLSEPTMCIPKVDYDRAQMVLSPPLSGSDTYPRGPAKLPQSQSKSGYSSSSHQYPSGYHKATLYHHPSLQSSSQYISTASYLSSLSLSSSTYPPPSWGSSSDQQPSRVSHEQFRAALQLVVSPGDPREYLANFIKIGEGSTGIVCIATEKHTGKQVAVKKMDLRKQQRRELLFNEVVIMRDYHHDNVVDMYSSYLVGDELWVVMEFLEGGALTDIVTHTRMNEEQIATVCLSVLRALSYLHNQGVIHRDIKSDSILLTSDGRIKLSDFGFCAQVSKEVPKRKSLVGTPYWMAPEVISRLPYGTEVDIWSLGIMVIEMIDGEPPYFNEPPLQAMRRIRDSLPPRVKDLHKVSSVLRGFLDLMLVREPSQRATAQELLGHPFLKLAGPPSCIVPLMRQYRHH

[16] = target: MAP kinase-activated protein kinase 5 (Homo sapiens) (UniProt Q8IW41); test: Inhibition of PRAK assessed as residual activity at 1 uM
Chain of MAP kinase-activated protein kinase 5 (Homo sapiens) (Q8IW41 whole entry): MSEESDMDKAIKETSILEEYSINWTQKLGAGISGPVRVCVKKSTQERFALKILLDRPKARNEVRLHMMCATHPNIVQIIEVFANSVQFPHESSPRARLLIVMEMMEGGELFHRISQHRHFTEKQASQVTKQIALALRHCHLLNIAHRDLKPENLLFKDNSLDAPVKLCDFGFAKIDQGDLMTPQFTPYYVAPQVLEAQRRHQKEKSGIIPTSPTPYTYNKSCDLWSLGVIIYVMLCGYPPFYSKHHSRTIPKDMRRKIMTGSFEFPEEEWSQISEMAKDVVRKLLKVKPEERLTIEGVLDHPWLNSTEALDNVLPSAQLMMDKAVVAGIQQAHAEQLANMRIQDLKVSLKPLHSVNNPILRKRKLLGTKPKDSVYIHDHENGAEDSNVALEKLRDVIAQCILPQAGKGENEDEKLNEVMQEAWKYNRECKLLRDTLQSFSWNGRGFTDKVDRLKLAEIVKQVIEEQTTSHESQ

[17] = target: Calcium/calmodulin-dependent protein kinase type 1 (Homo sapiens) (UniProt Q14012); test: Inhibition of CAMK1 assessed as residual activity at 1 uM
[18] = target: Mitogen-activated protein kinase 3 (Homo sapiens) (UniProt P27361); test: Inhibition of ERK1 assessed as residual activity at 1 uM
[19] = species on record: Homo sapiens; test: Inhibition of PKA assessed as residual activity at 1 uM
[20] = target: Protein kinase C zeta type (Homo sapiens) (UniProt Q05513); test: Inhibition of PKCzeta assessed as residual activity at 1 uM
[21] = target: Serine/threonine-protein kinase Chk1 (Homo sapiens) (UniProt O14757); test: Inhibition of CHK1 assessed as residual activity at 1 uM
[22] = target: RAC-alpha serine/threonine-protein kinase (Homo sapiens) (UniProt P31749); test: Inhibition of PKBalpha assessed as residual activity at 1 uM
Chain of RAC-alpha serine/threonine-protein kinase (Homo sapiens) (P31749 whole entry): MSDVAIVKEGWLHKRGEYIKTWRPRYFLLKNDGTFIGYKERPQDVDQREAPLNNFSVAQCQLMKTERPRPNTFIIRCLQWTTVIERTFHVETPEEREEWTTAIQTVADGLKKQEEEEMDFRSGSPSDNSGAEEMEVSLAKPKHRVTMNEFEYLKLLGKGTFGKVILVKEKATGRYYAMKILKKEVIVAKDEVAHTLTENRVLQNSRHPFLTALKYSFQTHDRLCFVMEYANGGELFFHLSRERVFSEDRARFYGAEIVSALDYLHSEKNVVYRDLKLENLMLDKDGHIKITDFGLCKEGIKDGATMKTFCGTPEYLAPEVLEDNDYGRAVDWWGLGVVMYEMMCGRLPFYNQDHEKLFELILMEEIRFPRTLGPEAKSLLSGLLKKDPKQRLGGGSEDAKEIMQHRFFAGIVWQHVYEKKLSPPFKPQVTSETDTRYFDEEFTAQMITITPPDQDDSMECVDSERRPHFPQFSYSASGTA

[23] = target: Serine/threonine-protein kinase PAK 5 (Homo sapiens) (UniProt Q9P286); test: Inhibition of PAK5 assessed as residual activity at 1 uM
[24] = target: Serine/threonine-protein kinase pim-1 (Homo sapiens) (UniProt P11309); test: Inhibition of PIM1 assessed as residual activity at 1 uM
[25] = target: Serine/threonine-protein kinase Sgk1 (Homo sapiens) (UniProt O00141); test: Inhibition of SGK1 assessed as residual activity at 1 uM
[26] = target: T1, AMP-activated protein kinase, AMPK (Homo sapiens); test: Inhibition of AMPK assessed as residual activity at 0.01 uM; format: protein-complex assay
[27] = target: Serine/threonine-protein kinase D1 (Homo sapiens) (UniProt Q15139); test: Inhibition of PKD1 assessed as residual activity at 1 uM
[28] = species on record: Homo sapiens; test: Inhibition of PKA assessed as residual activity at 0.01 uM
[29] = target: RAC-beta serine/threonine-protein kinase (Homo sapiens) (UniProt P31751); test: Inhibition of PKBbeta assessed as residual activity at 0.01 uM
[30] = target: Serine/threonine-protein kinase pim-2 (Homo sapiens) (UniProt Q9P1W9); test: Inhibition of PIM2 assessed as residual activity at 0.01 uM
Chain of Serine/threonine-protein kinase pim-2 (Homo sapiens) (Q9P1W9 whole entry, looked up): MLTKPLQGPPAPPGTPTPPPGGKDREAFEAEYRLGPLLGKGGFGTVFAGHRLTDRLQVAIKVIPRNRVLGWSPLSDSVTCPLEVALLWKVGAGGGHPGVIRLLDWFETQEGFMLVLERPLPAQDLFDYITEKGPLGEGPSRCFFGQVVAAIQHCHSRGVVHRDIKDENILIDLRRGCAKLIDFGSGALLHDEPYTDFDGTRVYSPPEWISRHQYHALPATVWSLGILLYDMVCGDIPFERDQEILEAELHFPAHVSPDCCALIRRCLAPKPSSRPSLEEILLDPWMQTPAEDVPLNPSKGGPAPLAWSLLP

[31] = target: T2, Casein kinase II (Homo sapiens) (UniProt P67870+P68400+P19784); test: Inhibition of CK2 assessed as residual activity at 0.1 uM; format: protein-complex assay
[32] = target: Proto-oncogene tyrosine-protein kinase Src (Homo sapiens) (UniProt P12931); test: Inhibition of Src assessed as residual activity at 1 uM
[33] = target: T2, Casein kinase II (Homo sapiens); test: Inhibition of CK2 assessed as residual activity at 1 uM; format: protein-complex assay
[34] = target: Serine/threonine-protein kinase Chk1 (Homo sapiens) (UniProt O14757); test: Inhibition of CHK1 assessed as residual activity at 0.01 uM
[35] = target: MAP kinase-activated protein kinase 5 (Homo sapiens) (UniProt Q8IW41); test: Inhibition of PRAK assessed as residual activity at 0.01 uM
[36] = target: Serine/threonine-protein kinase Nek6 (Homo sapiens) (UniProt Q9HC98); test: Inhibition of NEK6 assessed as residual activity at 0.01 uM
[37] = target: Dual specificity tyrosine-phosphorylation-regulated kinase 3 (Homo sapiens) (UniProt O43781); test: Inhibition of DYRK3 assessed as residual activity at 1 uM
[38] = target: Mitogen-activated protein kinase 10 (Homo sapiens) (UniProt P53779); test: Inhibition of JNK3 assessed as residual activity at 0.01 uM
[39] = target: Aurora kinase B (Homo sapiens) (UniProt Q96GD4); test: Inhibition of AURORA B assessed as residual activity at 1 uM
[40] = target: Tyrosine-protein kinase Lck (Homo sapiens) (UniProt P06239); test: Inhibition of Lck assessed as residual activity at 1 uM
[41] = target: Ribosomal protein S6 kinase beta-1 (Homo sapiens) (UniProt P23443); test: Inhibition of S6K1 assessed as residual activity at 0.01 uM
[42] = target: Protein kinase C alpha type (Homo sapiens) (UniProt P17252); test: Inhibition of PKCalpha assessed as residual activity at 1 uM
[43] = species on record: Homo sapiens; test: Inhibition of CDK2/cyclin A assessed as residual activity at 0.01 uM
[44] = target: RAC-alpha serine/threonine-protein kinase (Homo sapiens) (UniProt P31749); test: Inhibition of PKBalpha assessed as residual activity at 0.01 uM
[45] = target: Mitogen-activated protein kinase 3 (Homo sapiens) (UniProt P27361); test: Inhibition of ERK1 assessed as residual activity at 0.01 uM
[46] = target: Tyrosine-protein kinase CSK (Homo sapiens) (UniProt P41240); test: Inhibition of CSK assessed as residual activity at 1 uM
[47] = target: Maternal embryonic leucine zipper kinase (Homo sapiens) (UniProt Q14680); test: Inhibition of MELK assessed as residual activity at 0.01 uM
[48] = target: Aurora kinase B (Homo sapiens) (UniProt Q96GD4); test: Inhibition of AURORA B assessed as residual activity at 0.01 uM
[49] = target: Tyrosine-protein kinase CSK (Homo sapiens) (UniProt P41240); test: Inhibition of CSK assessed as residual activity at 0.01 uM
[50] = target: Serine/threonine-protein kinase N2 (Homo sapiens) (UniProt Q16513); test: Inhibition of PRK2 assessed as residual activity at 1 uM
[51] = target: Ribosomal protein S6 kinase beta-1 (Homo sapiens) (UniProt P23443); test: Inhibition of S6K1 assessed as residual activity at 1 uM
[52] = target: RAC-beta serine/threonine-protein kinase (Homo sapiens) (UniProt P31751); test: Inhibition of PKBbeta assessed as residual activity at 1 uM
[53] = target: Tyrosine-protein kinase Lck (Homo sapiens) (UniProt P06239); test: Inhibition of Lck assessed as residual activity at 0.01 uM
[54] = target: Glycogen synthase kinase-3 beta (Homo sapiens) (UniProt P49841); test: Inhibition of GSK3-beta assessed as residual activity at 1 uM
[55] = target: Serine/threonine-protein kinase D1 (Homo sapiens) (UniProt Q15139); test: Inhibition of PKD1 assessed as residual activity at 0.01 uM
[56] = target: MAP kinase-activated protein kinase 3 (Homo sapiens) (UniProt Q16644); test: Inhibition of MAPKAP K3 assessed as residual activity at 0.01 uM
[57] = target: Serine/threonine-protein kinase pim-2 (Homo sapiens) (UniProt Q9P1W9); test: Inhibition of PIM2 assessed as residual activity at 1 uM
[58] = target: Serine/threonine-protein kinase pim-1 (Homo sapiens) (UniProt P11309); test: Inhibition of PIM1 assessed as residual activity at 0.01 uM
[59] = target: Calcium/calmodulin-dependent protein kinase type 1 (Homo sapiens) (UniProt Q14012); test: Inhibition of CAMK1 assessed as residual activity at 0.01 uM
[60] = target: Ribosomal protein S6 kinase alpha-1 (Homo sapiens) (UniProt Q15418); test: Inhibition of RSK1 assessed as residual activity at 0.01 uM
[61] = target: Ribosomal protein S6 kinase alpha-3 (Homo sapiens) (UniProt P51812); test: Inhibition of RSK2 assessed as residual activity at 1 uM
[62] = target: Protein kinase C zeta type (Homo sapiens) (UniProt Q05513); test: Inhibition of PKCzeta assessed as residual activity at 0.01 uM
[63] = target: Serine/threonine-protein kinase N2 (Homo sapiens) (UniProt Q16513); test: Inhibition of PRK2 assessed as residual activity at 0.01 uM
[64] = target: 3-phosphoinositide-dependent protein kinase 1 (Homo sapiens) (UniProt O15530); test: Inhibition of PDK1 assessed as residual activity at 0.01 uM
[65] = target: cAMP-dependent protein kinase catalytic subunit alpha (Homo sapiens, UniProt P17612); test: Inhibition of cAPK Calpha in presence of 1 mM ATP

Chain of Maternal embryonic leucine zipper kinase (Homo sapiens) (Q14680 whole entry, looked up): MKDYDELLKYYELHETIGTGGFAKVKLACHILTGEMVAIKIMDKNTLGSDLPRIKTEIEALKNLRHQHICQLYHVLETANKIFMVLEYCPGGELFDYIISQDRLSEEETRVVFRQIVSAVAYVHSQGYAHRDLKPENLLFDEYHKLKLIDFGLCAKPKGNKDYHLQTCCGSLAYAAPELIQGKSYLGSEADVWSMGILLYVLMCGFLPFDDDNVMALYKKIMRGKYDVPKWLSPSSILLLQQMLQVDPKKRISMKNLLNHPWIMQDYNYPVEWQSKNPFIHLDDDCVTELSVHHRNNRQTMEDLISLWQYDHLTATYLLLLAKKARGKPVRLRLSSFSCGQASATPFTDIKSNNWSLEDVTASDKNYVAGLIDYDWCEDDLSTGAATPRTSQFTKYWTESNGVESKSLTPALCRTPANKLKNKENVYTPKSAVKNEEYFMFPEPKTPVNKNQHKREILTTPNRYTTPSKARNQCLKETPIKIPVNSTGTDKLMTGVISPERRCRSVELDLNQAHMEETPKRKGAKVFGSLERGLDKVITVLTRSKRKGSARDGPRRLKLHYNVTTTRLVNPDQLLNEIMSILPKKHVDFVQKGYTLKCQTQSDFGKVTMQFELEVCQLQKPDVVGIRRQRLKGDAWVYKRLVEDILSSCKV

N=C(N)NCCC[C@H](NC(=O)[C@H](CCCNC(=N)N)NC(=O)[C@H](CCCNC(=N)N)NC(=O)[C@H](CCCNC(=N)N)NC(=O)[C@H](CCCNC(=N)N)NC(=O)[C@H](CCCNC(=N)N)NC(=O)CCCCCNC(=O)[C@@H]1C[C@@H](O)[C@H](n2cnc3c(N)ncnc32)C1)C(N)=O
Activity [1]: 85%
Activity [2]: 10%
Activity [3]: 40%
Activity [4]: 104%
Activity [5]: 111%
Activity [6]: 82%
Activity [7]: 96%
Activity [8]: 12%
Activity [9]: 91%
Activity [10]: 114%
Activity [11]: 98%
Activity [12]: 81%
Activity [13]: 91%
Activity [14]: 28%
Activity [15]: 71%
Activity [16]: 96%
Activity [17]: 19%
Activity [18]: 84%
Activity [19]: 0%
Activity [20]: 33%
Activity [21]: 27%
Activity [22]: 32%
Activity [23]: 10%
Activity [24]: 6%
Activity [25]: 19%
Activity [26]: 70%
Activity [27]: 73%
Activity [28]: 7%
Activity [29]: 74%
Activity [30]: 103%
Activity [31]: 86%
Activity [32]: 84%
Activity [33]: 88%
Activity [34]: 84%
Activity [35]: 88%
Activity [36]: 101%
Activity [37]: 51%
Activity [38]: 103%
Activity [39]: 72%
Activity [40]: 63%
Activity [41]: 81%
Activity [42]: 30%
Activity [43]: 103%
Activity [44]: 25%
Activity [45]: 82%
Activity [46]: 77%
Activity [47]: 86%
Activity [48]: 76%
Activity [49]: 97%
Activity [50]: 3%
Activity [51]: 7%
Activity [52]: 2%
Activity [53]: 86%
Activity [54]: 88%
Activity [55]: 81%
Activity [56]: 97%
Activity [57]: 20%
Activity [58]: 92%
Activity [59]: 62%
Activity [60]: 98%
Activity [61]: 28%
Activity [62]: 83%
Activity [63]: 59%
Activity [64]: 76%

COC(=O)[C@H]1C[C@H](O)[C@@H](n2cnc3c(N)ncnc32)C1
IC50 [65]: > 1000 µM

COC(=O)[C@@H]1C[C@@H](O)[C@H](n2cnc3c(N)ncnc32)C1
IC50 [65]: 168 µM
